Earlier results as cited in patent publication US8868172B2, “Methods and systems for recommending an appropriate action to a patient for managing epilepsy and other neurological disorders” (Cyberonics, Inc., priority 2005, dated 2014).
Read-outs that look alike come from different tables or passages of the source.

Legend:
[1] = not given; remark: listed apart in the source
[2] = for plasma concentration average per daily dose of 1 mg/kg: long term therapy
T-type Ca^2+ currents = details: in vitro
rat hippocampal slices = details: 10-30 μg/mL
sodium channels = details: in vitro
[3] = test system: cultured mouse spinal cord neurons; details: 10-30 μg/mL
[4] = test system: dopaminergic and serotonergic neurotransmission; details: in vivo microdialysis
[5] = test system: GABA/benzodiazepine receptor ionophore complex; details: allosteric, no changes in chloride flux
[6] = per daily dose of 1 mg/kg of the drug itself

O=C1NC(=O)C(c2ccccc2)(c2ccccc2)N1 [Phenyloin, diphenylhydantoin]
concentrations at which toxic effects such as nystagmus develop: around 20 μg/ml
concentrations at which chronic control of seizures is generally obtained [1]: above 10 μg/ml

CCC1(C)CC(=O)NC1=O (centres unmarked) [ethosuximide, Ethosuximide]
plasma concentration average per daily dose of 1 mg/kg [2, 6]: about 2 μg/ml

CCC1(c2ccccc2)C(=O)NC(=O)NC1=O [phenobarbital]
plasma concentration of phenobarbital per daily dose of 1 mg/kg of primidone ([2]; long term therapy with primidone): about 2 μg/ml
plasma concentration average per daily dose of 1 mg/kg ([2]; adults, per daily dose of 1 mg/kg): about 10 μg/ml

CCC1(c2ccccc2)C(=O)NCNC1=O [primidone, Primidone]
plasma concentration average per daily dose of 1 mg/kg [2, 6]: about 1 μg/ml

NS(=O)(=O)Cc1noc2ccccc12 [zonisamide, 1,2-benzisoxazole-3-methanesulfonamide]
carbonic anhydrase inhibiting activity (carbonic anhydrase): weak
effect on voltage-dependent, transient inward currents (T-type Ca2+ currents) (T-type Ca^2+ currents): reduces
effect on neuronal or glial uptake of [3H]-GABA (rat hippocampal slices): without affecting
effect on sodium channels (sodium channels): blocks
effect on postsynaptic GABA or glutamate responses [3]: without affecting
effect on synaptically-driven electrical activity [3]: suppresses
effect on dopaminergic and serotonergic neurotransmission [4]: facilitates
binding to the GABA/benzodiazepine receptor ionophore complex [5]: binds
